For 33 molecules, EC50 and IC50 results are on record in patent US7105510B2, “Non-nucleoside reverse transcriptase inhibitors” (Boehringer Ingelheim (Canada) Ltd., priority 2002, dated 2006).

The structures appear in SMILES notation.

One experiment concerns HIV-1 WT. Description: Cell-based assay, wild type. The settings on record: Human immunodeficiency virus 1. An excerpt:
(§1) Reverse Transcriptase (RT) and Cell-Based Assays
(§2) The assays are as described in WO 01/96338A1, the contents of which are hereby incorporated herein.

Experiment [1] deals with HIV-1 K103N/Y181C (103/181). Description: Cell-based assay, 103/181 double mutant. To be noted: Human immunodeficiency virus 1, read-out: EC50 103/181.
Description: as §1, §2

In a further experiment the target is T1, HIV-1 RT WT (Human immunodeficiency virus type 1 group M subtype B, UniProt P03366).
T1 construct: mutations that occur in the reverse transcriptase segment of the pol gene
The experiment in a line: Reverse Transcriptase (RT) assay, wild type. Format: biochemical.
Description: (§3) Based upon testing of these compounds, as described below, it is known that they inhibit the RNA-dependent DNA polymerase activity of HIV-1 RT. Utilizing the Reverse Transcriptase (RT) Assay described below, compounds can be tested for their ability to inhibit the RNA-dependent DNA polymerase activity of HIV-1 RT. Certain specific compounds described in the Examples which appear below, were so tested. The results of this testing appear in Table 2 as IC50 (nM) and EC50 (nM).
as §1, §2

Another experiment concerns the target T2, HIV-1 RT K103N/Y181C (Human immunodeficiency virus type 1 group M subtype B, UniProt P03366, K702N/Y780C).
T2 construct: mutations that occur in the reverse transcriptase segment of the pol gene
Description: Reverse Transcriptase (RT) assay, double mutant K103N/Y181C. In kind it is biochemical.
Description: as §3, §1, §2

Usually IC50 stands for the concentration that inhibits the measured activity by half. As to `CCN1c2ncc(CCOc3cccc4c3CNC4=O)cc2C(=O)N(C)c2cccnc21` [Entry 101, 5,11-Dihydro-8-{2-{(2,3-dihydro-1-oxo-1H-isoindol-4-yl)oxy}ethyl}-11-ethyl-5-methyl-6H-dipyrido[3,2-b:2′,3′-e][1,4]diazepin-6-one], the EC50 (in the experiment on HIV-1 WT; in experiment [1]) was < 10 nM throughout. Moreover, the IC50 was < 50 nM on HIV-1 RT WT and > 100 nM at HIV-1 RT K103N/Y181C.
On to `CCN1c2ncc(CCOc3cccc4c3CNC4=O)cc2C(=O)Nc2c(C)ccnc21` [Entry 102], for which the EC50 (with HIV-1 WT; in experiment [1]) was < 10 nM in each case. The IC50 was < 50 nM at HIV-1 RT WT and > 100 nM at HIV-1 RT K103N/Y181C.
In the case of `CCN1c2ncc(CCOc3cccc4c3CN(O)C4=O)cc2C(=O)N(C)c2cccnc21` [Entry 103, 5,11-Dihydro-8-{2-{(2,3-dihydro-2-hydroxy-1-oxo-1H-isoindol-4-yl)oxy}ethyl}-11-ethyl-5-methyl-6H-dipyrido[3,2-b:2′,3′-e][1,4]diazepin-6-one], the EC50 is < 10 nM in the experiment on HIV-1 WT and 10 to 50 nM in experiment [1]. Besides, the IC50 on HIV-1 RT WT was 50 to 100 nM; at HIV-1 RT K103N/Y181C, > 100 nM.
As for `CCN1c2ncc(CCOc3cccc4c3CN(Cc3ccncc3)C4=O)cc2C(=O)N(C)c2cccnc21` [Entry 104, 5,11-dihydro-8-{2-{{2,3-dihydro-1-oxo-2-(4-pyridinylmethyl)-1H-isoindol-4-yl}oxy}ethyl}-11-ethyl-5-methyl-6H-dipyrido[3,2-b:2′,3′-e][1,4]diazepin-6-one], the IC50 against HIV-1 RT WT was < 50 nM; against HIV-1 RT K103N/Y181C, 50 to 100 nM.
The matching figures for `CCN1c2ncc(CCOc3cccc4c3CC(=O)N4)cc2C(=O)N(C)c2cccnc21` [Entry 105, 5,11-Dihydro-8-{2-{(2,3-dihydro-2-oxo-1H-indol-4-yl)oxy}ethyl}-11-ethyl-5-methyl-6H-dipyrido[3,2-b:2′,3′-e][1,4]diazepin-6-one]: 50 to 100 nM and > 100 nM.
For `CCN1c2ncc(CCOc3cccc4c3C(C)C(=O)N4C)cc2C(=O)N(C)c2cccnc21` (stereo not drawn) [Entry 106, 5,11-dihydro-8-{2-{(2,3-dihydro-1,3-dimethyl-2-oxo-1H-indol-4-yl)oxy}ethyl}-11-ethyl-5-methyl-6H-dipyrido[3,2-b:2′,3′-e][1,4]diazepin-6-one] the same measures were 50 to 100 nM and > 100 nM.
Molecule `CCN1c2ncc(CCOc3cccc4c3CC(=O)N4C)cc2C(=O)N(C)c2cccnc21` [Entry 107, 5,11-dihydro-8-{2-{(2,3-dihydro-1-methyl-2-oxo-1H-indol-4-yl)oxy}ethyl}-11-ethyl-5-methyl-6H-dipyrido[3,2-b:2′,3′-e][1,4]diazepin-6-one] yielded an IC50 at HIV-1 RT WT of 50 to 100 nM.
`CCN1c2ncc(CCOc3cccc4c3CCNC4=O)cc2C(=O)N(C)c2cccnc21` [Entry 108]: the figures for the IC50 on HIV-1 RT WT and at HIV-1 RT K103N/Y181C were < 50 nM and 50 to 100 nM, respectively.
The matching figures for `CCN1c2ncc(CCOc3cccc4c3CCNC4=O)cc2C(=O)Nc2c(C)ccnc21` [Entry 109]: < 50 nM and > 100 nM.
For the molecule `CCN1c2ncc(CCOc3cccc4c3CNC(=O)N4)cc2C(=O)N(C)c2cccnc21` [Entry 110, 5,11-Dihydro-11-ethyl-5-methyl-8-{2-{(1,2,3,4-tetrahydro-2-oxo-5-quinazolinyl)oxy}ethyl}-6H-dipyrido[3,2-b:2′,3′-e][1,4]diazepin-6-one], the EC50 (with HIV-1 WT; in experiment [1]) was < 10 nM throughout. In addition, the IC50 at HIV-1 RT WT is < 50 nM; against HIV-1 RT K103N/Y181C, > 100 nM.
Regarding `CCN1c2ncc(CCOc3cccc4c3CNC(=O)N4)cc2C(=O)Nc2c(C)ccnc21` [Entry 111], the figures for the EC50 (with HIV-1 WT; in experiment [1]) were < 10 nM and 10 to 50 nM, respectively. Further, the 50% inhibitory concentration (IC50) is < 50 nM on HIV-1 RT WT and > 100 nM against HIV-1 RT K103N/Y181C.
As to `CCN1c2ncc(CCOc3cccc4c3CN(C)C(=O)N4C)cc2C(=O)N(C)c2cccnc21` [Entry 112], the EC50 with HIV-1 WT is < 10 nM; in experiment [1], 10 to 50 nM. The 50% inhibitory concentration (IC50) was < 50 nM on HIV-1 RT WT and > 100 nM at HIV-1 RT K103N/Y181C.
The matching figures for `CCN1c2ncc(CCOc3cccc4c3CNC(=O)N4C)cc2C(=O)N(C)c2cccnc21` [Entry 113]: < 10 nM, < 10 nM, < 50 nM and < 50 nM.
For `Cc1ccnc2c1NC(=O)c1cc(CCOc3cccc4c3CNC(=O)N4)cnc1N2C1CC1` [Entry 114], the IC50 was < 50 nM at HIV-1 RT WT and > 100 nM against HIV-1 RT K103N/Y181C.
Regarding `CCN1c2ncc(CCOc3cccc4c3CN(C)C(=O)N4C)cc2C(=O)Nc2c(C)ccnc21` [Entry 115], the IC50 on HIV-1 RT WT is < 50 nM; against HIV-1 RT K103N/Y181C, > 100 nM.
For `CCN1c2ncc(CCOc3cccc4c3CNC(=O)N4C)cc2C(=O)Nc2c(C)ccnc21` [Entry 116] the same measures were < 50 nM and > 100 nM.
`CCN1C(=O)c2cc(CCOc3cccc4c3CNC(=O)N4)cnc2N(CC)c2ncccc21` [Entry 117]: the IC50 is < 50 nM against HIV-1 RT WT and > 100 nM against HIV-1 RT K103N/Y181C.
In the case of `CCN1c2ncc(CCOc3cccc4c3CNC(=O)N4CC(=O)O)cc2C(=O)N(C)c2cccnc21` [Entry 118], the EC50 (with HIV-1 WT; in experiment [1]) was > 50 nM throughout. For the same molecule, the IC50 is < 50 nM against HIV-1 RT WT and > 100 nM at HIV-1 RT K103N/Y181C.
Consider `CCN1c2ncc(CCOc3ccc4c(c3)CNC(=O)N4C)cc2C(=O)N(C)c2cccnc21` [Entry 119], for which the IC50 against HIV-1 RT WT was < 50 nM; against HIV-1 RT K103N/Y181C it was > 100 nM.
The matching figures for `CCN1c2ncc(CCOc3ccc4c(c3)CN(C)C(=O)N4C)cc2C(=O)N(C)c2cccnc21` [Entry 120]: < 50 nM and > 100 nM.
On to `CCN1c2ncc(CCOc3ccc4c(c3)CNC(=O)N4)cc2C(=O)N(C)c2cccnc21` [Entry 121], for which the IC50 was 50 to 100 nM at HIV-1 RT WT and > 100 nM on HIV-1 RT K103N/Y181C.
Regarding `CCN1c2ncc(CCOc3ccc4[nH]c(=O)[nH]c4c3)cc2C(=O)N(C)c2cccnc21` [Entry 122, 5,11-Dihydro-8-{2-{(2,3-dihydro-2-oxo-1H-benzimidazol-5-yl)oxy}ethyl}-11-ethyl-5-methyl-6H-dipyrido[3,2-b:2′,3′-e][1,4]diazepin-6-one], the IC50 on HIV-1 RT WT was 50 to 100 nM; on HIV-1 RT K103N/Y181C it was > 100 nM.
`CCN1c2ncc(CCOc3cccc4c3CNC(=O)C4)cc2C(=O)N(C)c2cccnc21` [Entry 123, 5,11-Dihydro-11-ethyl-5-methyl-8-{2-{(1,2,3,4-tetrahydro-3-oxo-8-isoquinolinyl)oxy}ethyl}-6H-dipyrido[3,2-b:2′,3′-e][1,4]diazepin-6-one]: the IC50 against HIV-1 RT WT and on HIV-1 RT K103N/Y181C was < 50 nM throughout.
`CCN1c2ncc(CCOc3cccc4c3CNC(=O)O4)cc2C(=O)N(C)c2cccnc21` [Entry 124, 5,11-Dihydro-8-{2-{(3,4-dihydro-2-oxo-2H-1,3-benzoxazin-5-yl)oxy}ethyl}-11-ethyl-5-methyl-6H-dipyrido[3,2-b:2′,3′-e][1,4]diazepin-6-one]: the IC50 at HIV-1 RT WT and against HIV-1 RT K103N/Y181C was < 50 nM each time.
For the molecule `CCN1c2ncc(CCOc3cccc4c3C(C)(C)OC(=O)N4)cc2C(=O)N(C)c2cccnc21` [Entry 125, 5,11-Dihydro-8-{2-{(1,4-dihydro-4,4-dimethyl-2-oxo-2H-3,1-benzoxazin-5-yl)oxy}ethyl}-11-ethyl-5-methyl-6H-dipyrido[3,2-b:2′,3′-e][1,4]diazepin-6-one], the half-inhibitory concentration (IC50) on HIV-1 RT WT was 50 to 100 nM; on HIV-1 RT K103N/Y181C, > 100 nM.
In the case of `CCN1c2ncc(CCOc3cccc4c3COC(=O)N4)cc2C(=O)N(C)c2cccnc21` [Entry 126, 5,11-Dihydro-8-{2-{(1,4-dihydro-2-oxo-2H-3,1-benzoxazin-5-yl)oxy}ethyl}-11-ethyl-5-methyl-6H-dipyrido[3,2-b:2′,3′-e][1,4]diazepin-6-one], the IC50 on HIV-1 RT WT was < 50 nM; against HIV-1 RT K103N/Y181C, > 100 nM.
For `CCN1c2ncc(CCOc3cccc4c3COC(=O)N4)cc2C(=O)Nc2c(C)ccnc21` [Entry 127] the same measures were < 50 nM and > 100 nM.
As to `CCN1c2ncc(CCOc3cccc4c3COC(=O)N4CC(=O)O)cc2C(=O)N(C)c2cccnc21` [Entry 128, 5-[2-(6,11-dihydro-11-ethyl-5-methyl-6-oxo-5H-dipyrido[3,2-b:2′,3′-e][1,4]diazepin-8-yl)ethoxy]-2-oxo-2H-3,1-benzoxazine-1(4H)-acetic acid], the results for the IC50 on HIV-1 RT WT and at HIV-1 RT K103N/Y181C were 50 to 100 nM and > 100 nM, respectively.
The matching figures for `CCN1c2ncc(CCOc3ccc4on(C(C)(C)C)c(=O)c4c3)cc2C(=O)Nc2c(C)cc(F)nc21` [Entry 129, 5,11-Dihydro-8-{2-{{2,3-dihydro-2-(1,1-dimethylethyl)-3-oxo-1,2-benzisoxazol-5-yl}oxy}ethyl}-2-fluoro-11-ethyl-4-methyl-6H-dipyrido[3,2-b:2′,3′-e][1,4]diazepin-6-one]: 50 to 100 nM and > 100 nM.
For `CCN1c2ncc(CCOc3ccc4on(C)c(=O)c4c3)cc2C(=O)Nc2c(C)cc(F)nc21` [Entry 130] the same measures were < 50 nM and > 100 nM.
In the case of `CCN1c2ncc(CCOc3cccc4c3n(C)c(=O)n4C)cc2C(=O)N(C)c2cccnc21` [Entry 131], the values for the IC50 against HIV-1 RT WT and at HIV-1 RT K103N/Y181C were 50 to 100 nM and > 100 nM, respectively.
The matching figures for `CCN1c2ncc(CCOc3cccc4[nH]c(=O)n(C)c34)cc2C(=O)N(C)c2cccnc21` [Entry 132]: 50 to 100 nM and > 100 nM.
Turning to `CCN1c2ncc(CCOc3ccc4c(c3)COC(=O)N4)cc2C(=O)N(C)c2cccnc21` [Entry 133], the IC50 was < 50 nM against HIV-1 RT WT and > 100 nM on HIV-1 RT K103N/Y181C.
